Values joined by “and” are separate entries in the source; they are usually repeats but may differ in a detail not shown here. Identical values can stand only once. Like-named read-outs stand apart in the source and are kept apart here. Marks after values point to notes of the source that are not given here.
Key:
dung-breeding flies = conditions: cattle, cited from earlier work
house flies = conditions: added to the feed of mink; cited from earlier work
house fly = conditions: feed-through to fattening porkers, traditional pens with straw bedding; cited from earlier work
[1] = in vivo; cited from earlier work
[2] = test system: Musca domestica (Hilmer Strain) larvae; test: House fly bioassay: adult fly emergence from larvae exposed to feces of cyromazine-treated horses; type: in vivo; conditions: for Adult Fly Emergence from Larvae Hatched, Rep 1-4: 600 mg/day oral, after 3 weeks
Description: (§1) Cyromazine (2-cycloproplyamino-4,6-diamino-s-triazine) was obtained as a purified chemical composition at greater than 98% cyromazine (technical cyromazine). 600 mg of cyromazine was orally administered to each horse daily by top-dressing horse feed, for a continuous daily administration during fly season. In this example, horses residing in North Carolina, U.S. were treated during the local fly season, lasting approximately March through October of the calendar year.
(§2) In one study, cyromazine administration was stopped, and 5 manure samples were obtained from the same horse at 24, 48, 72, 96 and 120 hours post-dosing to monitor the duration of cyromazine at an insecticidal amount in the feces. In another study, single manure samples were collected from each individual horse (n=4) <24 hours after dosing with cyromazine, i.e., before another daily dose was given. Untreated control horse manure was collected from a nearby horse ranch. Samples were shipped and kept in the refrigerator until the house fly bioassay was set-up.
The replicates containing hatched larvae were then returned to the environmental chamber in the presence of the test feces samples to determine the insecticidal effect of the cyromazine in the feces. Adult house fly emergence from larvae was determined after 3 weeks.
(§3) The percent larval hatch, adult fly emergence and corrected percent effect were calculated and recorded. The percentage of eggs hatching is calculated as the mean number of eggs hatched after 2 days per test divided by 50 (the total eggs input), and multiplied by 100. The percentage of adult fly emergence from larvae hatched (% larvae emerging as flies) is calculated as the mean number of adult flies emerging after 3 weeks per test divided by the mean number of larvae hatching on test day 2, and multiplied by 100. The percentage of larvae not developing is calculated as the mean number of larvae not developing per test divided by the mean number of larvae hatching on test day 2, and multiplied by 100. Thus, the data in Table 2 refers back to the data in Table 1, and the data in Table 4 refers back to the data in Table 3.

[3] = Tolerability of daily oral cyromazine in horses; type: in vivo, horse; conditions: 600 mg daily oral by top-dressing feed
Description: as §1, §2

immature stages of flies = conditions: dairy calves, outdoor hutches, dose per body weight; cited from earlier work
[4] = test system: Musca domestica (Hilmer Strain) eggs; test: House fly bioassay: larval hatch from 50 eggs; type: in vivo; conditions: for Larval Hatch/50 Eggs, Rep 1-4: scored after 2 days
Description: as §1, §2
Approximately fifty (50) Musca domestica (Hilmer Strain) eggs <24 hours old were counted and placed on filter paper discs in each of four replicates (rep) per cyromazine treatment group or control. Each replicate was covered with a paper towel and placed in the environmental chamber at 80° F. (27° C.), 80% relative humidity and a 14:10 (light:dark) photoperiod. The eggs were scored for larval hatch after two days and a layer of wood shavings added as a moisture barrier and a dry substrate for pupation.
as §3

[5] = 120 hour sample (4 reps), first study
[6] = feces of horse Barney, <24 hours post-dosing
[7] = feces of horse Fancy, <24 hours post-dosing
[8] = feces of horse Phalete, <24 hours post-dosing
[9] = feces of horse Precious, <24 hours post-dosing
[10] = horse feces 24 hours post-dosing
[11] = horse feces 48 hours post-dosing
[12] = horse feces 72 hours post-dosing
[13] = horse feces 96 hours post-dosing
[14] = horse feces 120 hours post-dosing
[15] = horse Barney, <24 hours post-dosing group
[16] = horse Fancy, <24 hours post-dosing group
[17] = horse Phalete, <24 hours post-dosing group
[18] = horse Precious, <24 hours post-dosing group
[19] = same horse, 600 mg/day oral, 24 hours post-dosing group
[20] = same horse, 600 mg/day oral, 48 hours post-dosing group
[21] = same horse, 600 mg/day oral, 72 hours post-dosing group
[22] = same horse, 600 mg/day oral, 96 hours post-dosing group
[23] = same horse, 600 mg/day oral, 120 hours post-dosing group

## COC(C)(C)CCC[C@H](C)C/C=C/C(C)=C/C(=O)OC(C)C (racemic) [methoprene]
dung-breeding flies; drinking water
  inhibition of development in manure: Complete inhibition of development in manure
dung-breeding flies; mineral blocks
  inhibition of development in manure: Complete inhibition of development in manure

## Nc1nc(N)nc(NC2CC2)n1 [cyromazine, 2-cyclopropylamino-4,6-diamino-s-triazine]
House flies
  prevention of breeding of house flies: ineffective
House fly
  adult fly development: some adult flies did develop
[1]
  share of all cyromazine excreted found in urine: 95%
[2]; [5]
  flies emerged: 1
  flies emerged, percent: 0.2%
[2]; feces obtained at 24, 48, 72, 96 and 120 hours post-dosing
  insecticidal amount in the feces: An insecticidal amount of cyromazine was present in the feces
[2]; [6]
  Adult Fly Emergence from Larvae Hatched, Rep 1-4: 0
  # Larvae not Developing: 133
  % Larvae Emerging as Flies: 0%
  % Larvae not Developing: 100.0%
  Adult Fly Emergence from Larvae Hatched, Σ: 0
[2]; [7]
  Adult Fly Emergence from Larvae Hatched, Rep 1-4: 0
  # Larvae not Developing: 147
  % Larvae Emerging as Flies: 0%
  % Larvae not Developing: 100.0%
  Adult Fly Emergence from Larvae Hatched, Σ: 0
[2]; [8]
  Adult Fly Emergence from Larvae Hatched, Rep 1-4: 0
  # Larvae not Developing: 167
  % Larvae Emerging as Flies: 0%
  % Larvae not Developing: 100.0%
  Adult Fly Emergence from Larvae Hatched, Σ: 0
[2]; [9]
  Adult Fly Emergence from Larvae Hatched, Rep 1-4: 0
  # Larvae not Developing: 179
  % Larvae Emerging as Flies: 0%
  % Larvae not Developing: 100.0%
  Adult Fly Emergence from Larvae Hatched, Σ: 0
[2]; first study, same horse sampled at 5 time points
  adult fly emergence from hatched larvae: completely inhibited adult fly emergence
[2]; [10]
  # Larvae not Developing: 165
  % Larvae Emerging as Flies: 0%
  % Larvae not Developing: 100.0%
  Adult Fly Emergence from Larvae Hatched, Σ: 0
  Adult Fly Emergence from Larvae Hatched, Rep 1-4: 0
[2]; [11]
  # Larvae not Developing: 115
  % Larvae Emerging as Flies: 0%
  % Larvae not Developing: 100.0%
  Adult Fly Emergence from Larvae Hatched, Σ: 0
  Adult Fly Emergence from Larvae Hatched, Rep 1-4: 0
[2]; [12]
  # Larvae not Developing: 101
  % Larvae Emerging as Flies: 0%
  % Larvae not Developing: 100.0%
  Adult Fly Emergence from Larvae Hatched, Σ: 0
  Adult Fly Emergence from Larvae Hatched, Rep 1-4: 0
[2]; [13]
  # Larvae not Developing: 150
  % Larvae Emerging as Flies: 0%
  % Larvae not Developing: 100.0%
  Adult Fly Emergence from Larvae Hatched, Σ: 0
  Adult Fly Emergence from Larvae Hatched, Rep 1-4: 0
[2]; [14]
  # Larvae not Developing: 121
  % Larvae Emerging as Flies: 0.8%
  % Larvae not Developing: 99.8%
  Adult Fly Emergence from Larvae Hatched, Σ: 1
[2]; horses orally administered cyromazine, feces without urine
  insecticidal activity of manure samples: high degree of insecticidal activity
[2]; second study, all 4 horses, <24 hours post-dosing
  inhibition of house fly development: 100%
[3]
  tolerability, side effects: well tolerated at this dosage, and no side effects were seen
Immature stages of flies
  doses preventing development of immature stages of flies in straw bedding: 0.5 to 1.0 mg/kg
[4]; horse Barney, 600 mg/day oral, <24 hours post-dosing group
  Larval Hatch/50 Eggs, Rep 1-4: 25 and 33 and 43 and 32
[4]; [15]
  % Eggs Hatching: 66.5%
  Larval Hatch/50 Eggs, Mean: 33.25
  Larval Hatch/50 Eggs, Σ: 133
[4]; horse Fancy, 600 mg/day oral, <24 hours post-dosing group
  Larval Hatch/50 Eggs, Rep 1-4: 47 and 33 and 32 and 35
[4]; [16]
  % Eggs Hatching: 73.5%
  Larval Hatch/50 Eggs, Mean: 36.75
  Larval Hatch/50 Eggs, Σ: 147
[4]; [17]
  % Eggs Hatching: 83.5%
  Larval Hatch/50 Eggs, Mean: 41.75
[4]; horse Phalete, <24 hours post-dosing group, sum decreased by 7 (footnote)
  Larval Hatch/50 Eggs, Σ: 167*
[4]; horse Precious, 600 mg/day oral, <24 hours post-dosing group
  Larval Hatch/50 Eggs, Rep 1-4: 49 and 37 and 44
[4]; [18]
  % Eggs Hatching: 89.5%
  Larval Hatch/50 Eggs, Mean: 44.75
  Larval Hatch/50 Eggs, Σ: 179
[4]; [19]
  % Eggs Hatching: 82.5%
  Larval Hatch/50 Eggs, Mean: 41.25
  Larval Hatch/50 Eggs, Σ: 165
  Larval Hatch/50 Eggs, Rep 1-4: 40 and 35 and 42 and 48
[4]; [20]
  % Eggs Hatching: 57.5%
  Larval Hatch/50 Eggs, Mean: 28.75
  Larval Hatch/50 Eggs, Σ: 115
  Larval Hatch/50 Eggs, Rep 1-4: 31 and 21 and 30 and 33
[4]; [21]
  % Eggs Hatching: 50.5%
  Larval Hatch/50 Eggs, Mean: 25.25
  Larval Hatch/50 Eggs, Σ: 101
  Larval Hatch/50 Eggs, Rep 1-4: 27 and 35 and 18 and 21
[4]; [22]
  % Eggs Hatching: 75.0%
  Larval Hatch/50 Eggs, Mean: 37.50
  Larval Hatch/50 Eggs, Σ: 150
  Larval Hatch/50 Eggs, Rep 1-4: 40 and 38 and 34
[4]; [23]
  % Eggs Hatching: 61.0%
  Larval Hatch/50 Eggs, Mean: 30.50
  Larval Hatch/50 Eggs, Σ: 122
  Larval Hatch/50 Eggs, Rep 1-4: 38 and 25 and 31 and 28

Source: patent publication US6864256B2, “Methods for the control of insect pests” (Tria Specialty Products, LLC, priority 2002, dated 2005)
